Assay results from patent US20140248254A1, “THE USE OF ACHE AS NUCLEASE” (priority 2011, published 2014).

Target: T1, DNase activity of AChE (Homo AChE protein) (Homo sapiens, UniProt P22303)
T1 construct: AChE 1-547AA corresponding to human; AChE1-548AA corresponding to mouse; made in house
Assay: Effect of metal cations and chelators on DNase activity of Homo AChE
Assay type: biochemical
Details: 2.5 mM CaCl2, 5 mM MgCl2, 0.5 mM EGTA, 0.5 mM EDTA; 6 h
Protocol: A. In the presence of 2.5 mM CaCl2, 5 mM MgCl2, 0.5 mM EGTA, 0.5 mM EDTA or the combination thereof, plasmid DNA (pEGFP-C1 plasmid) was incubated with Homo AChE protein for 6 h.
Purified plasmid DNA was used as substrate for detection. In the experiment of cleaving of plasmid DNA, 0.15 μg of plasmid DNA with a transfection-grade purity (pEGFP-C1 plasmid, Clotech) was added to 10 μl buffer system containing (5.0 mM Tris-HCl, PH 7.5; 2.5 mM CaCl2; 5.0 mM MgCl2). 1 μg (or an amount indicated in Examples) of purified AChE proteins of human or mouse origin (AChE 1-547AA corresponding to human; AChE1-548AA corresponding to mouse) was further added, and incubated in 37° C. Sampling at 6 h (or timepoints indicated in Examples).

T1 sequence (P22303 32-578): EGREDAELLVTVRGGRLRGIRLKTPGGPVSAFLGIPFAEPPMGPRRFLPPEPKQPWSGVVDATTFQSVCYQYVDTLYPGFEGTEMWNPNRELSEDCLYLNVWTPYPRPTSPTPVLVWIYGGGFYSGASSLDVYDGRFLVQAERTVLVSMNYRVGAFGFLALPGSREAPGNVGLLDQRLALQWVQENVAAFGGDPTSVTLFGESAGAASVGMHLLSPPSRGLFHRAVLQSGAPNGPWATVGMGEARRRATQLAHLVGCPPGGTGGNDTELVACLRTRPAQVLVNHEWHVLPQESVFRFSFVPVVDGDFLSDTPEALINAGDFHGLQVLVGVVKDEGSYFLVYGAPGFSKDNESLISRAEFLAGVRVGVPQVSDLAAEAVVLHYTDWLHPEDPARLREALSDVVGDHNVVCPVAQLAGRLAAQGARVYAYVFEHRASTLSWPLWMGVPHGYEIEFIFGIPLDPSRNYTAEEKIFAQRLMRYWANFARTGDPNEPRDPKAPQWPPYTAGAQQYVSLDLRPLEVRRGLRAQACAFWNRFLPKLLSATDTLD

SMILES	effect on activity of AChE cleaving DNA
O=C(O)CN(CCN(CC(=O)O)CC(=O)O)CC(=O)O [EDTA]	significantly inhibited
O=C(O)CN(CCOCCOCCN(CC(=O)O)CC(=O)O)CC(=O)O [EGTA]	not obvious
